± gives the standard deviation of the averaged measurements.
What was measured:
UT-SCC-42A [1] = experiment: relative IC50 (midpoint of the fitted curve; maximal inhibition may be below 50%); higher = less potent; settings: treatment time: 3 days
Procedure, shortened: (§1)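 Viability was read with CellTiter-Glo 2.0 luminescence and scaled against vehicle (0.1% DMSO) and cell-killing control wells. The assay used HPV-negative HNSCC cell lines at 500 cells/well in 384-well plates, grown on plastic, on Matrigel or Myogel coatings (500 µg/mL), or embedded in Matrigel or Myogel plus rat collagen I, and treated for 3 days at five 10-fold concentrations. IC50, maximal inhibition and drug sensitivity score were derived from percent-inhibition dose–response curves fitted in the FIMM pipeline.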

UT-SCC-44 [2] = experiment: as above; settings: treatment time: 3 days
Procedure, shortened: as §1

UT-SCC-73 [3] = experiment: as above; settings: treatment time: 3 days
Procedure, shortened: as §1

UT-SCC-42B [4] = experiment: as above; settings: culture condition: plastic 2D (no matrix); treatment time: 3 days
Procedure, shortened: as §1

UT-SCC-14 [5] = experiment: as above; settings: culture condition: on top of Matrigel; treatment time: 3 days
Procedure, shortened: as §1

UT-SCC-106A [6] = experiment: as above; settings: treatment time: 3 days
Procedure, shortened: as §1

UT-SCC-24A [7] = experiment: maximal % inhibition of viability relative to DMSO; higher = stronger effect; settings: treatment time: 3 days
Procedure: (§2)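 HNSCC cell lines (500 cells/well, 384-well) were cultured on plastic, on top of (2D) or embedded (3D) in Matrigel or human leiomyoma matrix Myogel (500 ug/mL; Myogel 3D mixed with rat collagen I). Cells were treated for 3 days with 5 ten-fold concentrations of each drug, and viability was read by CellTiter-Glo. Viability was normalised to DMSO (0% inhibition) and 100 uM benzethonium chloride (100% inhibition) controls and fitted with the FIMM DSRT pipeline to give IC50 (nM), maximal % inhibition and the drug sensitivity score (DSS). Suffixes _1/_2/_3 on drug names are replicates.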

UT-SCC-24A [8] = experiment: relative IC50 (midpoint of the fitted curve; maximal inhibition may be below 50%); higher = less potent; settings: treatment time: 3 days
Procedure: as §2

UT-SCC-28 = experiment: drug sensitivity score (DSS); higher = more sensitive; extreme values may be limits of the assay; settings: treatment time: 3 days
Procedure, shortened: as §1

UT-SCC-8 = experiment: as above; settings: treatment time: 3 days
Procedure, shortened: as §1

UT-SCC-42A [9] = experiment: as above; settings: treatment time: 3 days
Procedure, shortened: as §1

UT-SCC-44 [10] = experiment: as above; settings: treatment time: 3 days
Procedure, shortened: as §1

UT-SCC-73 [11] = experiment: as above; settings: treatment time: 3 days
Procedure, shortened: as §1

UT-SCC-42B [12] = experiment: as above; settings: treatment time: 3 days
Procedure, shortened: as §1

UT-SCC-24B = experiment: as above; settings: treatment time: 3 days
Procedure, shortened: as §1

UT-SCC-40 = experiment: as above; settings: treatment time: 3 days
Procedure, shortened: as §1

UT-SCC-14 [13] = experiment: as above; settings: treatment time: 3 days
Procedure, shortened: as §1

UT-SCC-106A [14] = experiment: as above; settings: treatment time: 3 days
Procedure, shortened: as §1

UT-SCC-81 = experiment: as above; settings: treatment time: 3 days
Procedure, shortened: as §1

[15] = culture condition: embedded in Myogel + collagen I
[16] = culture condition: on top of Matrigel
[17] = culture condition: on top of Myogel
[18] = culture condition: plastic 2D (no matrix)
[19] = culture condition: embedded in Matrigel

`CO[C@H]1C[C@@H]2CC[C@@H](C)[C@@](O)(O2)C(=O)C(=O)N2CCCC[C@H]2C(=O)O[C@H]([C@H](C)C[C@@H]2CC[C@@H](OCCO)[C@H](OC)C2)CC(=O)[C@H](C)/C=C(\C)[C@@H](O)[C@@H](OC)C(=O)[C@H](C)C[C@H](C)/C=C/C=C/C=C/1C` [Everolimus] was tested, and the “relative IC50” value (UT-SCC-42A [1]; [15]) was 5.97 nM, the “relative IC50” value (UT-SCC-42A [1]; [16]) was 15 nM and the “relative IC50” value (UT-SCC-42A [1]; [17]) was 10.5 nM. The “relative IC50” value (UT-SCC-44 [2]; [15]) was 6.3 nM, the “relative IC50” value (UT-SCC-44 [2]; [16]) was 0.89 nM and the “relative IC50” value (UT-SCC-44 [2]; [17]) was 1.1 nM. The “relative IC50” value (UT-SCC-73 [3]; [16]) was 1.92 nM, the “relative IC50” value (UT-SCC-73 [3]; [18]) was 7.59 nM and the “relative IC50” value (UT-SCC-42B [4]) was 20.8 nM. The “relative IC50” value (UT-SCC-14 [5]) was 6.41 nM, the “relative IC50” value (UT-SCC-106A [6]; [19]) was 28.4 nM and the “relative IC50” value (UT-SCC-106A [6]; [17]) was 8.1 nM. The “maximal % inhibition of viability” value (UT-SCC-24A [7]; [19]) was 51.3 ± 40%, the “maximal % inhibition of viability” value (UT-SCC-24A [7]; [15]) was 33.2 ± 13% and the “maximal % inhibition of viability” value (UT-SCC-24A [7]; [16]) was 31.5 ± 13%. The “maximal % inhibition of viability” value (UT-SCC-24A [7]; [17]) was 26.8 ± 1.4%, the “maximal % inhibition of viability” value (UT-SCC-24A [7]; [18]) was 28.2 ± 2.9% and the “relative IC50” value (UT-SCC-24A [8]; [15]) was 0.761 nM. The “relative IC50” value (UT-SCC-24A [8]; [17]) was 10.4 nM, the drug sensitivity score (UT-SCC-28; [19]) was 3.57 ± 1.1 DSS and the drug sensitivity score (UT-SCC-28; [15]) was 3.37 ± 1.5 DSS. The drug sensitivity score (UT-SCC-28; [16]) was 2.63 ± 1.4 DSS, the drug sensitivity score (UT-SCC-28; [18]) was 4.63 ± 1.6 DSS and the drug sensitivity score (UT-SCC-8; [19]) was 5.3 ± 2.3 DSS. The drug sensitivity score (UT-SCC-8; [15]) was 4.2 ± 6.5 DSS, the drug sensitivity score (UT-SCC-8; [16]) was 5.8 ± 6 DSS and the drug sensitivity score (UT-SCC-8; [17]) was 7.9 ± 6 DSS. It also gave a drug sensitivity score (UT-SCC-8; [18]) of 6.57 ± 3.2 DSS, a drug sensitivity score (UT-SCC-42A [9]; [19]) of 0.933 ± 1.1 DSS and a drug sensitivity score (UT-SCC-42A [9]; [15]) of 3.87 ± 0.76 DSS. For the same compound, the drug sensitivity score (UT-SCC-42A [9]; [16]) was 2.6 ± 0.4 DSS, the drug sensitivity score (UT-SCC-42A [9]; [17]) was 3.27 ± 0.83 DSS and the drug sensitivity score (UT-SCC-42A [9]; [18]) was 2.07 ± 0.91 DSS. It also gave a drug sensitivity score (UT-SCC-44 [10]; [19]) of 2.47 ± 3.5 DSS, a drug sensitivity score (UT-SCC-44 [10]; [15]) of 5.4 ± 0.36 DSS and a drug sensitivity score (UT-SCC-44 [10]; [16]) of 6.83 ± 1.1 DSS. The drug sensitivity score (UT-SCC-44 [10]; [17]) was 7.67 ± 0.12 DSS, the drug sensitivity score (UT-SCC-44 [10]; [18]) was 5.07 ± 2 DSS and the drug sensitivity score (UT-SCC-73 [11]; [19]) was 2.37 ± 1.2 DSS. For the same compound, the drug sensitivity score (UT-SCC-73 [11]; [15]) was 8.4 ± 7.2 DSS, the drug sensitivity score (UT-SCC-73 [11]; [16]) was 3.93 ± 1.3 DSS and the drug sensitivity score (UT-SCC-73 [11]; [17]) was 4.27 ± 1.7 DSS. For the same compound, the drug sensitivity score (UT-SCC-73 [11]; [18]) was 3.23 ± 0.51 DSS, the drug sensitivity score (UT-SCC-42B [12]; [19]) was 0 DSS and the drug sensitivity score (UT-SCC-42B [12]; [16]) was 0.733 ± 0.67 DSS. The drug sensitivity score (UT-SCC-42B [12]; [17]) was 0.433 ± 0.38 DSS, the drug sensitivity score (UT-SCC-42B [12]; [18]) was 0.133 ± 0.12 DSS and the drug sensitivity score (UT-SCC-24B; [19]) was 1.17 ± 1.5 DSS. The drug sensitivity score (UT-SCC-24B; [15]) was 5.5 ± 2.1 DSS, the drug sensitivity score (UT-SCC-24B; [16]) was 1.93 ± 1.7 DSS and the drug sensitivity score (UT-SCC-24B; [17]) was 4.07 ± 1.6 DSS. The drug sensitivity score (UT-SCC-24B; [18]) was 2.43 ± 1.4 DSS, the drug sensitivity score (UT-SCC-40; [19]) was 3.83 ± 6 DSS and the drug sensitivity score (UT-SCC-40; [15]) was 3.13 ± 3.1 DSS. The drug sensitivity score (UT-SCC-40; [16]) was 2.1 ± 1.3 DSS, the drug sensitivity score (UT-SCC-40; [17]) was 1.8 ± 1.9 DSS and the drug sensitivity score (UT-SCC-40; [18]) was 1.73 ± 1.6 DSS. The drug sensitivity score (UT-SCC-14 [13]; [19]) was 8.37 ± 3.1 DSS, the drug sensitivity score (UT-SCC-14 [13]; [15]) was 10.2 ± 3.4 DSS and the drug sensitivity score (UT-SCC-14 [13]; [16]) was 5.67 ± 2.2 DSS. For the same compound, the drug sensitivity score (UT-SCC-14 [13]; [17]) was 7.77 ± 2.7 DSS, the drug sensitivity score (UT-SCC-14 [13]; [18]) was 7.63 ± 2.4 DSS and the drug sensitivity score (UT-SCC-106A [14]; [19]) was 1.27 ± 0.31 DSS. The drug sensitivity score (UT-SCC-106A [14]; [15]) was 2.77 ± 0.81 DSS, the drug sensitivity score (UT-SCC-106A [14]; [16]) was 1.53 ± 1.4 DSS and the drug sensitivity score (UT-SCC-106A [14]; [17]) was 1.33 ± 0.6 DSS. The drug sensitivity score (UT-SCC-106A [14]; [18]) was 7.3 ± 6 DSS, the drug sensitivity score (UT-SCC-81; [19]) was 7.87 ± 6.4 DSS and the drug sensitivity score (UT-SCC-81; [15]) was 9.2 ± 0.62 DSS. For the same compound, the drug sensitivity score (UT-SCC-81; [16]) was 5 ± 0.76 DSS, the drug sensitivity score (UT-SCC-81; [17]) was 7.07 ± 1.8 DSS and the drug sensitivity score (UT-SCC-81; [18]) was 7.8 ± 0.44 DSS.

Source: the supplement of paper PMC7017272
